Reference: the supplement of paper PMC4862054

Experiments:
Test in all cases: normalised viability (% of control), CellTiter-Blue; higher = more viable cells (about 100 = DMSO control)
BT-474 [1] = settings: 100 nM; incubation time: 72 h
Procedure: (§1)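 DSRT, CellTiter-Blue viability, 72 h incubation. Signal is normalised to DMSO and benzethonium chloride controls. Value is the normalised response at dose 3.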

BT-549 [2] = settings: 100 nM; incubation time: 72 h
Procedure: as §1

CAL-120 = settings: 100 nM; incubation time: 72 h
Procedure: as §1

CAL-148 [3] = settings: 10 nM; incubation time: 72 h
Procedure: as §1

CAL-51 = settings: 10 nM; incubation time: 72 h
Procedure: as §1

CAL-85-1 = settings: 10 nM; incubation time: 72 h
Procedure: as §1

DU-4475 [4] = settings: 10 nM; incubation time: 72 h
Procedure: as §1

HCC1143 [5] = settings: 100 nM; incubation time: 72 h
Procedure: as §1

HCC1599 = settings: 100 nM; incubation time: 72 h
Procedure: as §1

HCC1937 [6] = settings: 100 nM; incubation time: 72 h
Procedure: as §1

HDQ-P1 [7] = settings: 10 nM; incubation time: 72 h
Procedure: as §1

Hs578T = settings: 100 nM; incubation time: 72 h
Procedure: as §1

MDA-MB-231 [8] = settings: 100 nM; incubation time: 72 h
Procedure: as §1

MDA-MB-436 = settings: 100 nM; incubation time: 72 h
Procedure: as §1

MDA-MB-453 [9] = settings: 10 nM; incubation time: 72 h
Procedure: as §1

MDA-MB-468 = settings: 100 nM; incubation time: 72 h
Procedure: as §1

MFM-223 [10] = settings: 100 nM; incubation time: 72 h
Procedure: as §1

SK-BR-3 [11] = settings: 100 nM; incubation time: 72 h
Procedure: as §1

BT-474 [12] = settings: incubation time: 72 h
Summary of the method: (§2)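 Vehicle (100) and a positive kill control (0) anchored the normalisation of each plate, and Z'-factor was used for quality control. Breast cancer cell lines in 20 µl suspension were incubated 72 h over compound in 5 µl medium in 384-well plates, followed by CellTiter-Blue at 560/590 nm. The value is normalised viability at a single listed concentration of the series.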

BT-549 [13] = settings: incubation time: 72 h
Summary of the method: as §2

CAL-148 [14] = settings: incubation time: 72 h
Summary of the method: as §2

DU-4475 [15] = settings: incubation time: 72 h
Summary of the method: as §2

HCC1143 [16] = settings: incubation time: 72 h
Summary of the method: as §2

HCC1937 [17] = settings: incubation time: 72 h
Summary of the method: as §2

HDQ-P1 [18] = settings: incubation time: 72 h
Summary of the method: as §2

MDA-MB-231 [19] = settings: incubation time: 72 h
Summary of the method: as §2

MDA-MB-453 [20] = settings: incubation time: 72 h
Summary of the method: as §2

MFM-223 [21] = settings: incubation time: 72 h
Summary of the method: as §2

SK-BR-3 [22] = settings: incubation time: 72 h
Summary of the method: as §2

Oc1ncnc2[nH]ncc12 [Allopurinol]
Settings	normalised viability [%]
BT-474 [1]	106
BT-549 [2]	87.3
CAL-51	90
CAL-85-1	102
CAL-120	107
CAL-148 [3]	108
DU-4475 [4]	104
HCC1143 [5]	113
HCC1599	98.5
HCC1937 [6]	94.5
HDQ-P1 [7]	106
Hs578T	94
MDA-MB-231 [8]	109
MDA-MB-436	108
MDA-MB-453 [9]	110
MDA-MB-468	105
MFM-223 [10]	91.2
SK-BR-3 [11]	103

normalised viability [%]
Settings	3 nM	10 nM	30 nM	100 nM	1000 nM	10000 nM
BT-474 [12]	–	114	–	–	116	102
BT-549 [13]	–	105	–	–	86.6	99.1
CAL-148 [14]	113	–	121	120	–	–
DU-4475 [15]	104	–	92.1	97	–	–
HCC1143 [16]	–	119	–	–	123	108
HCC1937 [17]	–	87.2	–	–	79.2	96.2
HDQ-P1 [18]	95.9	–	93.1	91.8	–	–
MDA-MB-231 [19]	–	91.8	–	–	93.9	107
MDA-MB-453 [20]	115	–	105	105	–	–
MFM-223 [21]	–	95.3	–	–	110	105
SK-BR-3 [22]	–	100	–	–	103	105

CC1=C2C[C@H]3[C@@H](CC=C4C[C@@H](O)CC[C@@]43C)[C@@H]2CC[C@]12O[C@@H]1C[C@H](C)CN[C@H]1[C@H]2C [Cyclopamine]
Settings	normalised viability [%]
BT-474 [1]	124
BT-549 [2]	111
CAL-51	114
CAL-85-1	109
CAL-120	88.2
CAL-148 [3]	113
DU-4475 [4]	107
HCC1143 [5]	116
HCC1599	113
HCC1937 [6]	100
HDQ-P1 [7]	120
Hs578T	84.1
MDA-MB-231 [8]	84.9
MDA-MB-436	96.3
MDA-MB-453 [9]	123
MDA-MB-468	94.4
MFM-223 [10]	103
SK-BR-3 [11]	90.8

normalised viability [%]
Settings	3 nM	10 nM	30 nM	100 nM	1000 nM	10000 nM
BT-474 [12]	–	135	–	–	114	132
BT-549 [13]	–	88.6	–	–	87.2	92
CAL-148 [14]	104	–	117	110	–	–
DU-4475 [15]	102	–	103	107	–	–
HCC1143 [16]	–	96	–	–	107	99.1
HCC1937 [17]	–	100	–	–	74	105
HDQ-P1 [18]	89.1	–	106	114	–	–
MDA-MB-231 [19]	–	107	–	–	97.2	104
MDA-MB-453 [20]	123	–	101	120	–	–
MFM-223 [21]	–	96	–	–	90.2	103
SK-BR-3 [22]	–	103	–	–	123	103

C[C@]1(O)C[C@@H](c2nc(-c3ccc4ccc(-c5ccccc5)nc4c3)c3c(N)nccn32)C1 [OSI-906]
Settings	normalised viability [%]
BT-474 [1]	110
BT-549 [2]	84.4
CAL-51	97.4
CAL-85-1	104
CAL-120	90
CAL-148 [3]	101
DU-4475 [4]	94.1
HCC1143 [5]	105
HCC1599	94.9
HCC1937 [6]	92.5
HDQ-P1 [7]	76
Hs578T	74.8
MDA-MB-231 [8]	83.8
MDA-MB-436	94.5
MDA-MB-453 [9]	86.6
MDA-MB-468	98.6
MFM-223 [10]	95.5
SK-BR-3 [11]	78.3

normalised viability [%]
Settings	3 nM	10 nM	30 nM	100 nM	1000 nM	10000 nM
BT-474 [12]	–	102	–	–	91.5	78.4
BT-549 [13]	–	95.4	–	–	89.1	41.3
CAL-148 [14]	96.8	–	89.8	91.7	–	–
DU-4475 [15]	92.7	–	104	88.8	–	–
HCC1143 [16]	–	99.9	–	–	85.5	75.2
HCC1937 [17]	–	92.8	–	–	79.7	48.4
HDQ-P1 [18]	79.4	–	83.9	85.4	–	–
MDA-MB-231 [19]	–	84.4	–	–	79.7	74.3
MDA-MB-453 [20]	97.9	–	92.9	78.6	–	–
MFM-223 [21]	–	98.3	–	–	91.6	74.5
SK-BR-3 [22]	–	88.7	–	–	79.7	54.3

O=C1CN2Cc3c(ccc(Cl)c3Cl)N=C2N1 [Anagrelide]
Settings	normalised viability [%]
BT-474 [1]	122
BT-549 [2]	92.5
CAL-51	98.7
CAL-85-1	91.6
CAL-120	85.6
CAL-148 [3]	97
DU-4475 [4]	98.6
HCC1143 [5]	84.8
HCC1599	104
HCC1937 [6]	94.9
HDQ-P1 [7]	114
Hs578T	88
MDA-MB-231 [8]	99.2
MDA-MB-436	94.2
MDA-MB-453 [9]	109
MDA-MB-468	95.2
MFM-223 [10]	93
SK-BR-3 [11]	60.9

normalised viability [%]
Settings	3 nM	10 nM	30 nM	100 nM	1000 nM	10000 nM
BT-474 [12]	–	126	–	–	132	130
BT-549 [13]	–	88.7	–	–	89.1	99.4
CAL-148 [14]	96.5	–	102	103	–	–
DU-4475 [15]	89.5	–	79.5	96.1	–	–
HCC1143 [16]	–	83.5	–	–	87.8	83.2
HCC1937 [17]	–	95.6	–	–	82.5	77.8
HDQ-P1 [18]	116	–	95	99.2	–	–
MDA-MB-231 [19]	–	103	–	–	95.5	104
MDA-MB-453 [20]	110	–	102	98.5	–	–
MFM-223 [21]	–	100	–	–	99	104
SK-BR-3 [22]	–	119	–	–	110	107
